Earlier results in patent US6627427B1, “Heterologous production of 15-methyl-6-deoxyerthronolide B” (Kosan Biosciences, Inc., priority 1999, dated 2003).

Assays:
Gram-positive pathogens = settings: including those carrying inducible MLS resistance and many S. pneumoniae and S. pyogenes strains carrying constitutive MLS resistance
[1] = statement with reference to PCT publications

SMILES	activity against Gram-positive pathogens (Gram-positive pathogens)	antibiotic activity [1]
CC[C@H]1OC(=O)[C@H](C)C(=O)[C@H](C)[C@@H](O[C@@H]2O[C@H](C)C[C@H](N(C)C)[C@H]2O)[C@](C)(OC/C=C/c2cnc3ccccc3c2)C[C@@H](C)C(=O)[C@H](C)[C@H]2NC(=O)O[C@@]21C [ABT-773]	excellent activity	
CC[C@H]1OC(=O)[C@H](C)C(=O)[C@H](C)[C@@H](O[C@@H]2O[C@H](C)C[C@H](N(C)C)[C@H]2O)[C@](C)(OC)C[C@@H](C)C(=O)[C@H](C)[C@H]2N(CCCCn3cnc(-c4cccnc4)c3)C(=O)O[C@]12C [HMR 3647]	excellent activity	
CCC[C@H]1OC(=O)[C@H](C)[C@@H](O[C@@H]2C[C@@](C)(OC)[C@@H](O)[C@H](C)O2)[C@H](C)[C@@H](O[C@@H]2O[C@H](C)C[C@H](N(C)C)[C@H]2O)[C@](C)(O)C[C@@H](C)C(=O)[C@H](C)[C@@H](O)[C@]1(C)O [Propyl erythromycin A, 15-methylerythromycin A]		potent antibiotic activity
